Data: PMC8333425, “Discovery of a dual Ras and ARF6 inhibitor from a GPCR endocytosis screen” (Nature Communications, 2021)
Where “and” joins values, the source holds several entries; their conditions need not be identical. Equal values may be shown once.

Columns and labels:
Assay type in all cases: cell-based, human
[1] = system: Ras; test: GST-Raf1-RBD pull-down of EGFR-mediated Ras activation; conditions: for Ras-GTP over total Ras, GST-Raf1-RBD pull-down, EGFR: Comp 21 50 μM, individual experiments
Text: Since 21 inhibited both ERK1/2 and Akt activation by GPCRs and EGFR, we looked at a common target involved in both pathways. The small G protein Ras is an upstream regulator of both Ras-RAF-MEK-ERK and PI3K/Akt signaling pathways[35],[36]. Therefore, we explored 21’s ability to inhibit Ras activity using GST-Raf1-Ras-binding domain (RBD) in a pull-down assay. A reduction of 60% in GTP-bound Ras was noticed in pulled-down from cells treated with 21 and stimulated with either AT1R or EGFR, as compared to vehicle-treated cells (Fig. 4a, b). Complementary to this in vitro assay, we generated a Ras BRET assay, using the Raf-Ras binding domain tagged with RlucII (Raf1-RBD-RlucII) and the rGFP at the PM (rGFP-CAAX) (Supplementary Fig. 3c), to assess 21’s effects on Ras activation kinetics. […] Overexpression of either the active form of Ras (G12V) or SOS1 anchored at the PM (SOS-CAAX) produced a robust basal BRET signal that was no longer modulated by receptor activation (Supplementary Fig. 3d). […] 21’s potency to inhibit ARF6 and Ras is also consistent with its relative efficacy for inhibiting AT1R internalization and MAPK, respectively, when used at 50 μM (e.g., around 7 and 70 times the respective IC50s) (Figs. 2e and 3a). We also assessed if 21 was acting as a pan small G protein inhibitor by testing its effect on Rho and Rac/Cdc42. […] To assess Rac/Cdc42 activity, we generated a Rac/Cdc42 BRET sensor that consisted of the PAK-CRIB domain fused to RlucII (PAK-CRIB-RlucII) and the rGFP-CAAX (Supplementary Fig. 3e). PAK-CRIB, which binds to active Rac/Cdc42, was recruited to the PM upon AngII stimulation of cells and generated a robust BRET signal, which was blocked by the overexpression of the DN Rac1-T17N. Overexpression of the constitutively active Rac1-Q61L increased the basal BRET, which was no longer modulated by AT1R stimulation (Supplementary Fig. 3f).
Activation of ARF1, ARF6, Ras, and Rho were assessed by using GST pull-down assays. […] ImageLab 5.2 software was used to quantify the digital blots as fold of the amount of pulled down protein over total protein. […]

[2] = system: ERK1/2 activation by EGFR; test: Western blot of EGFR-mediated ERK1/2 phosphorylation; conditions: for p-ERK1/2 over ERK1/2, normalized to basal (0 min), EGFR: Comp 21 50 μM; for p-ERK1/2 over ERK1/2, normalized to basal (0 min), EGFR / ERK 1/2 activation, EGFR (p-ERK1/2 over ERK1/2, fold over basal): individual experiments
Protocol: (§1) HEK293SL cells (10^5 cells per well) were seeded in a poly-L-lysine-coated six-well plate and transiently transfected with 3 μg Flag-AT1R, HA-B2R or HA-β2AR and/or 500 ng Flag-MEK1-WT, Flag-MEK1-DD, Flag-BRAF-WT, Flag-BRAF-V600E, Flag-K-Ras-WT, Flag-K-Ras-G12V, HA-ARF6-WT, or HA-ARF6-T27N. Gαq/11 KO and βarr1/2 KO cells were seeded onto 100 mm dishes at a density of 10^6 cells per dish. Next day, cells were transfected with 3 μg AT1R alone or along with 500 ng of β-arrestin2 using PEI. After 18 h of transfection, cells were detached and re-seeded onto poly-L-lysine coated 12-well plates (~1.5–2 × 10^5cells/well) for subsequent experiments. Forty-eight hours post transfection, in a 37 °C water bath, cells were serum-starved for 30 min, pretreated with DMSO (0.1%) or compound 21/Rasarfin (50 µM or at indicated concentrations) for 30 min, then stimulated or not with the indicated ligand [AngII (1 µM), BK (1 µM), Iso (10 µM) or EGF (100 ng/ml)] at indicated times. Cells were put on ice, washed with PBS and solubilized in 2x laemmli buffer (250 mM Tris–HCl pH 6.8, 2% SDS (w/v), 10% glycerol (v/v), 0.01% bromophenol blue (w/v) and 5% β-mercaptoethanol (v/v)) by heating at 65 °C for 15 min. Lysates were resolved on 10 or 14% SDS-PAGE, transferred to nitrocellulose membranes and immunoblotted for p-ERK1/2, ERK1/2, p-Akt, Akt, HA, Myc, β-actin or FLAG. ImageLab 5.2 software was used to quantify the digital blots as fold of the phosphorylated protein over total protein, which were then normalized as indicated in the figure legends. Uncropped immunoblots are provided in the Source Data file.

[3] = system: ERK1/2 activation by AT1R; test: Western blot of AT1R-mediated ERK1/2 activation in β-arrestin1/2 KO cells; conditions: for ERK1/2 activation by AT1R in β-arrestin1/2 KO cells: 50 μM
Protocol: as §1

SMILES: CC(C)C(=O)N1CCN(c2ccc(NC(=O)c3cc4ccccc4o3)cc2Cl)CC1 [Compound 21]
- reduction in GTP-bound Ras, EGFR-stimulated cells (pull-down) ([1]; 50 μM, compared to vehicle-treated cells): 60%
- Ras-GTP over total Ras, GST-Raf1-RBD pull-down, EGFR ([1]; Ctrl (no EGF)): 0.1945 and 0.09698 and 0.1503
- Ras-GTP over total Ras, GST-Raf1-RBD pull-down, EGFR ([1]; EGF): 1.319 and 0.978 and 0.8185
- MAPK response promoted by EGFR ([2]; 50 μM): blocked MAPK responses
- p-ERK1/2 over ERK1/2, normalized to basal (0 min), EGFR ([2]; time 0 min): 1
- p-ERK1/2 over ERK1/2, normalized to basal (0 min), EGFR ([2]; time 2 min): 0.3674 and 5.171 and 13.8891 and 0.7219
- p-ERK1/2 over ERK1/2, normalized to basal (0 min), EGFR ([2]; time 5 min): 0.3034 and 7.285 and 51.2032 and 0.6227
- IC50 ([2]; Homo sapiens, read-out: IC50 for inhibition of ERK1/2 activation by EGFR): 4 µM
- ERK 1/2 activation, EGFR (p-ERK1/2 over ERK1/2, fold over basal) ([2]; Log [Comp 21] (M) -4.3): 3.411 percent compared to DMSO and 1.173 percent compared to DMSO
- ERK 1/2 activation, EGFR (p-ERK1/2 over ERK1/2, fold over basal) ([2]; Log [Comp 21] (M) -5): 5.269 percent compared to DMSO and 7.4638 percent compared to DMSO and 1.3341 percent compared to DMSO
- ERK 1/2 activation, EGFR (p-ERK1/2 over ERK1/2, fold over basal) ([2]; Log [Comp 21] (M) -5.3): 22.8883 percent compared to DMSO and 78.7892 percent compared to DMSO and 45.9513 percent compared to DMSO
- ERK 1/2 activation, EGFR (p-ERK1/2 over ERK1/2, fold over basal) ([2]; Log [Comp 21] (M) -6): 104.782 percent compared to DMSO and 74.7611 percent compared to DMSO
- ERK 1/2 activation, EGFR (p-ERK1/2 over ERK1/2, fold over basal) ([2]; Log [Comp 21] (M) -6.3): 80.4826 percent compared to DMSO and 84.8524 percent compared to DMSO
- ERK 1/2 activation, EGFR (p-ERK1/2 over ERK1/2, fold over basal) ([2]; Log [Comp 21] (M) -7): 108.069 percent compared to DMSO and 86.5762 percent compared to DMSO
- ERK1/2 activation by AT1R in β-arrestin1/2 KO cells [3]: similarly inhibited ERK1/2 activation
- ERK1/2 activation by AT1R in β-arrestin1/2 KO cells ([3]; listed as Rasarfin): totally blocked
- ERK1/2 activation relative to time 0 (S_Fig.4a) ([3]; barr1/2 KO cells, Time 0 min): 1
- Mean Diff. DMSO - Comp 21 (Bonferroni's multiple comparisons test) ([3]; barr1/2 KO cells, Time 0 min): 0
- Mean Diff. DMSO - Comp 21 (Bonferroni's multiple comparisons test) ([3]; barr1/2 KO cells, Time 5 min): 8.446
- Mean Diff. DMSO - Comp 21 (Bonferroni's multiple comparisons test) ([3]; barr1/2 KO cells, Time 20 min): 10.85
